# pIC50: −log10 of the molar value.
# Target: T1, Nav 1.7 (Homo sapiens, UniProt Q15858)
# T1 construct: expressed in transfected cells
# Assay: Whole-cell voltage clamp electrophysiology, automated patch clamp (marker c in Table of Examples)
# Format: cell-based
# Details: marker c = Automated patch clamp data; read-out: Nav 1.7 activity
# From the text: a.IonWork Quattro data, b=Manual patch clamp data, c=Automated patch clamp data M=Method
# Whole-Cell Voltage Clamp Electrophysiology Assay
# Patch-clamp electrophysiology is considered the gold standard technique for investigation of ion channel function and pharmacology. Using this method, sodium channel currents can be measured in cells, which stably (or transiently) express the sodium channel subtype of interest. Application of compounds during such experiments provides a functional measure of the activity and potency of compounds affecting the ion channel of interest.
# Electrophysiological studies can be performed using automated or manual patch-clamp techniques. Automated patch-clamp instruments suitable for this work include the Ion Works HT (MDS), Ion Works Quattro (MDS), PatchLiner (Nanion technologies), Port-A-Patch (Nanion technologies), QPatch (Sophion) or any other suitable platform.
# For recording in automated patch-clamp instruments, cells expressing the voltage-gated sodium channel subtype of interest are dispensed in appropriate chips (plates with more than one recording chambers each containing one or more apertures to generate whole-cell patches), as provided by the manufacturer. Typically, the whole-cell perforated patch configuration is used for probing the pharmacology of compounds in automated patch-clamp electrophysiology on sodium channels. Extracellular and intracellular buffers for such experiments are composed according to the literature, or according to the instructions provided by the manufacturer of the instruments. Test solutions, which contain the compounds to be tested, are applied to the cells expressing the sodium channel of interest by a pipetting system, typically integrated into the robots.
# A suitable voltage stimulus protocol is used to activate voltage-gated sodium channel proteins of interest. A typical stimulus protocol may consist of sweeps of sequential voltage pulses starting from a holding potential (i.e. −65 mV), to a more positive and depolarising test pulse potential (i.e. −10 mV) and finally to a more negative and hyperpolarising potential (i.e. −100 mV). According to the biophysics of the voltage-gated ion channel of interest and interest in channel configuration the voltages and durations of the pulses as well as the overall frequency of sweeps applied might vary. Accordingly, a stimulus protocol was designed to assess compounds due to their potential to block NaV1.7 channels primarily in inactivated state. Selectivity over other voltage-gated sodium channel members was assessed by protocols that reflect the native function of the channels (i.e. heart rate or firing of neurons).
# T1 sequence (Q15858 whole entry): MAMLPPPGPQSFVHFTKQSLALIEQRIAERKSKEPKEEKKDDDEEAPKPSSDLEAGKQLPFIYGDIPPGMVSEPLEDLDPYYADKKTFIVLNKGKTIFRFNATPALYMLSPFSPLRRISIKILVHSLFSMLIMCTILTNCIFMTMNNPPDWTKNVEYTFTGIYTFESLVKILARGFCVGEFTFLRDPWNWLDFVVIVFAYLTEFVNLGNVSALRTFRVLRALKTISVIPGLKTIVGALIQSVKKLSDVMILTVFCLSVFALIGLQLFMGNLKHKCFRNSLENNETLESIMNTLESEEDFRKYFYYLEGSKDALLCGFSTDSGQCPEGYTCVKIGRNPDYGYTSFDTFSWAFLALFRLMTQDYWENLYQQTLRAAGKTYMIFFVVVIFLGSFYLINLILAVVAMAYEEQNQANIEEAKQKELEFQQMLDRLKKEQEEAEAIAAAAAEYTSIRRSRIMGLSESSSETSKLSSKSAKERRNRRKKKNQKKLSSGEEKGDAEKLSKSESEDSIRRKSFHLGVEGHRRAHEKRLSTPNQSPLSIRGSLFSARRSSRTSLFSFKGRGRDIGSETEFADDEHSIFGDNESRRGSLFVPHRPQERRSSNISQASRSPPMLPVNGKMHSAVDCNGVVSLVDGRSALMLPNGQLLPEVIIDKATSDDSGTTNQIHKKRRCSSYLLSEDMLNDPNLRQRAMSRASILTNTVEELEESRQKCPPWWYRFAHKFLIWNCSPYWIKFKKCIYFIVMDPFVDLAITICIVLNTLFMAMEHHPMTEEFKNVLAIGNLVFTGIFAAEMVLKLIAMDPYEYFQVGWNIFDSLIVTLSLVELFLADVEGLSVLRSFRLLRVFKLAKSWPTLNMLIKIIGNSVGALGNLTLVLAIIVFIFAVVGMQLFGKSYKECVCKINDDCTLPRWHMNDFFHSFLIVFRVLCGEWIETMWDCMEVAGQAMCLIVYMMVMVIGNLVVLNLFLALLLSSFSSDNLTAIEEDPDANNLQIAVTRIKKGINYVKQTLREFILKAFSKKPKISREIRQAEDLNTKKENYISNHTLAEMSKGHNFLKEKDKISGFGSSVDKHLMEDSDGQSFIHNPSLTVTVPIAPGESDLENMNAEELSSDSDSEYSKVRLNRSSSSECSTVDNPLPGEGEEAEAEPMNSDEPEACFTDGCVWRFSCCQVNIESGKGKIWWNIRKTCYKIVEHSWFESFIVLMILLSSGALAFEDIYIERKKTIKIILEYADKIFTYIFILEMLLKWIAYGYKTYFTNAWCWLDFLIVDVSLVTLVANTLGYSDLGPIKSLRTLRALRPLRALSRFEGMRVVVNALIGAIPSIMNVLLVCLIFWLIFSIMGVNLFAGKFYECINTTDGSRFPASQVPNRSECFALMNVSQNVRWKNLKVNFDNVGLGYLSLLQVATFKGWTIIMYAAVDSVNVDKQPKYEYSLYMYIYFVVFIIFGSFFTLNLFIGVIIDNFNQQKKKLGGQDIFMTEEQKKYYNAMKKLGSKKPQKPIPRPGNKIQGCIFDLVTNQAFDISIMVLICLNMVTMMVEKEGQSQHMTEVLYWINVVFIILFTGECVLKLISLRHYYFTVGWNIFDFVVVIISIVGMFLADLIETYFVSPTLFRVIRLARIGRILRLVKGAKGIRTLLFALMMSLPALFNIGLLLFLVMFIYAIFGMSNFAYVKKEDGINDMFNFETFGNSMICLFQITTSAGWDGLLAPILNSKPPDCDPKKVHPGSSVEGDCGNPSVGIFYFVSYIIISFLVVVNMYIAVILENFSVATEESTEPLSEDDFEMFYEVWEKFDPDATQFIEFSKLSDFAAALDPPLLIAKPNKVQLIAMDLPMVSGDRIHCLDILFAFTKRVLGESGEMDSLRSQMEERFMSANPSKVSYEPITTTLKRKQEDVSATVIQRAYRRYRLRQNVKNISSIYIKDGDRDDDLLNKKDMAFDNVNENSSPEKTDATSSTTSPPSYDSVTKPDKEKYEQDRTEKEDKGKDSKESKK
row,Structure (SMILES),pIC50
1,"CN(c1ccccc1)c1nc(N)nc(-c2noc(C3CC(Oc4ccccc4)C3)n2)n1 (mixture of isomers) [Example 261, 2-N-Methyl-6-[5-(3-phenoxycyclobutyl)-1,2,4-oxadiazol-3-yl]-2-N-phenyl-1,3,5-triazine-2,4-diamine]",5.86

# Same assay, conditions: marker c: Automated patch clamp data; read-out: Nav 1.7 activity
row,Structure (SMILES),pIC50
1,"CN(c1ccccc1)c1nc(N)nc(-c2noc(C3C[C@H]4CC[C@@H](C3)N4CCC(F)(F)F)n2)n1 (mixture of isomers) [Example 145, N-Methyl-N-phenyl-6-{5-[(1R,3R,5S)-8-(3,3,3-trifluoro-propyl)-8-aza-bicyclo[3.2.1]oct-3-yl]-[1,2,4]oxadiazol-3-yl}-[1,3,5]triazine-2,4-diamine]",5.94
2,"Cc1ccccc1-c1nc(-c2nc(N)nc(N(C)c3ccccc3)n2)no1 [Example 27, N-Methyl-N-phenyl-6-(5-o-tolyl-[1,2,4]oxadiazol-3-yl)-[1,3,5]triazine-2,4-diamine]",6.03
3,"Cc1cccc(-c2nc(-c3nc(N)nc(N(C)c4ccccc4)n3)no2)c1 [Example 28, N-Methyl-N-phenyl-6-(5-m-tolyl-[1,2,4]oxadiazol-3-yl)-[1,3,5]triazine-2,4-diamine]",6.02
4,"Cc1ccc(-c2nc(-c3nc(N)nc(N(C)c4ccccc4)n3)no2)cc1 [Example 29, N-Methyl-N-phenyl-6-(5-p-tolyl-[1,2,4]oxadiazol-3-yl)-[1,3,5]triazine-2,4-diamine]",5.86
5,"CC(C)N(c1ccccc1)c1nc(N)nc(-c2noc(-c3ccco3)n2)n1 [Example 30, 6-(5-Furan-2-yl-[1,2,4]oxadiazol-3-yl)-N-isopropyl-N-phenyl-[1,3,5]triazine-2,4-diamine]",6.03
6,"CN(c1ccccc1)c1nc(N)nc(-c2noc(Cc3ccccc3)n2)n1 [Example 31, 6-(5-Benzyl-[1,2,4]oxadiazol-3-yl)-N-methyl-N-phenyl-[1,3,5]triazine-2,4-diamine]",6.44
7,"Nc1nc(Nc2ccccc2)nc(-c2noc(-c3cc[nH]n3)n2)n1 [Example 40, N-Phenyl-6-[5-(1H-pyrazol-3-yl)-[1,2,4]oxadiazol-3-yl]-[1,3,5]triazine-2,4-diamine]",5.57
8,"CN(c1ccccc1)c1nc(N)nc(-c2noc(-c3ncccc3OCC(F)(F)F)n2)n1 [Example 42, N-Methyl-N-phenyl-6-{5-[3-(2,2,2-trifluoro-ethoxy)-pyridin-2-yl]-[1,2,4]oxadiazol-3-yl}-[1,3,5]triazine-2,4-diamine]",5.85
9,"Cc1cc(-c2nc(-c3nc(N)nc(N(C)c4ccccc4)n3)no2)no1 [Example 44, N-Methyl-6-[5-(5-methyl-isoxazol-3-yl)-[1,2,4]oxadiazol-3-yl]-N-phenyl-[1,3,5]triazine-2,4-diamine]",5.57
10,"CN(c1ccccc1)c1nc(N)nc(-c2noc(N3CCOCC3)n2)n1 [Example 45, N-Methyl-6-(5-morpholin-4-yl-[1,2,4]oxadiazol-3-yl)-N-phenyl-[1,3,5]triazine-2,4-diamine]",5.45
11,"COc1ccc(-c2nc(-c3nc(N)nc(N(C)c4ccccc4)n3)no2)cn1 [Example 47, 6-[5-(6-Methoxy-pyridin-3-yl)-[1,2,4]oxadiazol-3-yl]-N-methyl-N-phenyl-[1,3,5]triazine-2,4-diamine]",5.72
12,"Cc1cc(-c2nc(-c3nc(N)nc(N(C)c4ccccc4)n3)no2)oc1C [Example 49, 6-[5-(4,5-Dimethyl-furan-2-yl)-[1,2,4]oxadiazol-3-yl]-N-methyl-N-phenyl-[1,3,5]triazine-2,4-diamine]",5.91
13,"CN(c1ccccc1)c1nc(N)nc(-c2noc(-c3ncccc3N)n2)n1 [Example 51, 6-[5-(3-Amino-pyridin-2-yl)-[1,2,4]oxadiazol-3-yl]-N-methyl-N-phenyl-[1,3,5]triazine-2,4-diamine]",5.46
14,"CN(c1ccccc1)c1nc(N)nc(-c2noc(-c3cccnc3N)n2)n1 [Example 53, 6-[5-(2-Amino-pyridin-3-yl)-[1,2,4]oxadiazol-3-yl]-N-methyl-N-phenyl-[1,3,5]triazine-2,4-diamine]",6.15
15,"CN(c1ccccc1)c1nc(N)nc(-c2noc(-c3ccc(N)nc3)n2)n1 [Example 55, 6-[5-(6-Amino-pyridin-3-yl)-[1,2,4]oxadiazol-3-yl]-N-methyl-N-phenyl-[1,3,5]triazine-2,4-diamine]",5.31
16,"CN(c1ccccc1)c1nc(N)nc(-c2noc(C3CCCCO3)n2)n1 (stereo not drawn) [Example 56, N-Methyl-N-phenyl-6-[5-(tetrahydro-pyran-2-yl)-[1,2,4]oxadiazol-3-yl]-[1,3,5]triazine-2,4-diamine]",5.34

row,Structure (SMILES),pIC50
1,"CN(c1ccccc1)c1nc(N)nc(-c2noc(C3CCOCC3)n2)n1 [Example 57, N-Methyl-N-phenyl-6-[5-(tetrahydro-pyran-4-yl)-[1,2,4]oxadiazol-3-yl]-[1,3,5]triazine-2,4-diamine]",5.94
2,"Cc1cc(-c2nc(-c3nc(N)nc(N(C)c4ccccc4)n3)no2)n[nH]1 [Example 58, N-Methyl-6-[5-(5-methyl-1H-pyrazol-3-yl)-[1,2,4]oxadiazol-3-yl]-N-phenyl-[1,3,5]triazine-2,4-diamine]",6.07
3,"CN(c1ccccc1)c1nc(N)nc(-c2noc(-c3c[nH]cn3)n2)n1 [Example 59, 6-[5-(1H-Imidazol-4-yl)-[1,2,4]oxadiazol-3-yl]-N-methyl-N-phenyl-[1,3,5]triazine-2,4-diamine]",5.09
4,"CN(c1ccccc1)c1nc(N)nc(-c2noc(-c3ccc[nH]3)n2)n1 [Example 60, N-Methyl-N-phenyl-6-[5-(1H-pyrrol-2-yl)-[1,2,4]oxadiazol-3-yl]-[1,3,5]triazine-2,4-diamine]",5.31
5,"Cc1ccc(-c2nc(-c3nc(N)nc(N(C)c4ccccc4)n3)no2)s1 [Example 62, N-Methyl-6-[5-(5-methyl-thiophen-2-yl)-[1,2,4]oxadiazol-3-yl]-N-phenyl-[1,3,5]triazine-2,4-diamine]",5.96
6,"CN(c1ccccc1)c1nc(N)nc(-c2noc(-c3cccc4c3OCC4)n2)n1 [Example 63, 6-[5-(2,3-Dihydro-benzofuran-7-yl)-[1,2,4]oxadiazol-3-yl]-N-methyl-N-phenyl-[1,3,5]triazine-2,4-diamine]",5.47
7,"CN(c1ccccc1)c1nc(N)nc(-c2noc(-c3cc4ccccc4o3)n2)n1 [Example 64, 6-(5-Benzofuran-2-yl-[1,2,4]oxadiazol-3-yl)-N-methyl-N-phenyl-[1,3,5]triazine-2,4-diamine]",5.71
8,"CN(c1ccccc1)c1nc(N)nc(-c2noc(-c3ncc[nH]3)n2)n1 [Example 65, 6-(5-Imidazol-2-yl-[1,2,4]oxadiazol-3-yl)-N-methyl-N-phenyl-[1,3,5]triazine-2,4-diamine]",5.28
9,"CN(c1ccccc1)c1nc(N)nc(-c2noc(C3CCCO3)n2)n1 (stereo not drawn) [Example 66, N-Methyl-N-phenyl-6-[5-(tetrahydro-furan-2-yl)-[1,2,4]oxadiazol-3-yl]-[1,3,5]triazine-2,4-diamine]",5.77
10,"CN(C)CCN(c1ccccc1)c1nc(N)nc(-c2noc(-c3ccco3)n2)n1 [Example 69, N-(2-Dimethylamino-ethyl)-6-(5-furan-2-yl-[1,2,4]oxadiazol-3-yl)-N-phenyl-[1,3,5]triazine-2,4-diamine]",5.86
11,"Nc1nc(-c2noc(-c3ccco3)n2)nc(N(CCO)c2ccccc2)n1 [Example 70, 2-{[4-Amino-6-(5-furan-2-yl-[1,2,4]oxadiazol-3-yl)-[1,3,5]triazin-2-yl]-phenyl-amino}-ethanol]",5.99
12,"CCOC(=O)c1nc(-c2nc(N)nc(N(C)c3ccccc3)n2)no1 [Example 73, 3-[4-Amino-6-(methyl-phenyl-amino)-[1,3,5]triazin-2-yl]-[1,2,4]oxadiazole-5-carboxylic acid ethyl ester]",5.83
13,"COc1ccsc1-c1nc(-c2nc(N)nc(N(C)c3ccccc3)n2)no1 [Example 74, 6-[5-(3-Methoxy-thiophen-2-yl)-[1,2,4]oxadiazol-3-yl]-N-methyl-N-phenyl-[1,3,5]triazine-2,4-diamine]",5.85
14,"CNC(=O)c1ccc(-c2nc(-c3nc(N)nc(N(C)c4ccccc4)n3)no2)s1 [Example 75, 5-{3-[4-Amino-6-(methyl-phenyl-amino)-[1,3,5]triazin-2-yl]-[1,2,4]oxadiazol-5-yl}-thiophene-2-carboxylic acid methylamide]",5.92
15,"COc1ncccc1-c1nc(-c2nc(N)nc(N(C)c3ccccc3)n2)no1 [Example 76, 6-[5-(2-Methoxy-pyridin-3-yl)-[1,2,4]oxadiazol-3-yl]-N-methyl-N-phenyl-[1,3,5]triazine-2,4-diamine]",6.03
16,"COc1ccc(-c2nc(-c3nc(N)nc(N(C)c4ccccc4)n3)no2)c(OC)c1 [Example 77, 6-[5-(2,4-Dimethoxy-phenyl)-[1,2,4]oxadiazol-3-yl]-N-methyl-N-phenyl-[1,3,5]triazine-2,4-diamine]",6.61

# From US8895733B2 (Novartis AG, priority 2010, dated 2014)
